Assays:
Type in all cases: in vivo
Settings in all cases: treatment dosage 320 g/ha
transplanted rice = test: Test Example 1: preemergent weed treatment in the submerged state, effect on crop; a: transplanted rice
Method in brief: (§1)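 Submerged pre-emergence treatment, water-surface application of compound emulsion at g/ha dosages; 4 cm flooded alluvial soil, weeds sown and 2.5-leaf rice transplanted same day. Rated after 3 weeks, greenhouse.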

chickweed [1] = test: Test Example 4: weedkilling efficacy by foliar treatment; N: chickweed
Method in brief: (§2)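 Seeds are spot-sown into sterilized diluvial soil and covered with about 1.5 cm of soil. After 14 days' greenhouse growth at 25 to 30° C, plants are sprayed on stems and leaves with diluted emulsion at the stated g/ha rate, then scored at 3 weeks.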

directly sown rice [2] = test: Test Example 3: soil treatment, effect on crop; b: directly sown rice
Method in brief: (§3)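 Crop and weed responses were judged three weeks after a uniform surface spray of the water-diluted emulsion at the given g/ha rate. Seeds sat beneath about 1.5 cm of sterilized diluvial soil, and boxes stood in a greenhouse at 25 to 30° C.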

beet [3] = test: Test Example 4: foliar treatment, effect on crop; f: beet
Method in brief: as §2

bulrush [4] = test: Test Example 2: weedkilling efficacy, growth period weed treatment in the submerged state; B: bulrush
Method in brief: (§4)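 Seedlings at 1-2 leaves in 4 cm-deep submerged alluvial soil received emulsion formulations on the water surface, dosed per hectare; effects were judged 3 weeks on.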

corn [5] = test: Test Example 4: foliar treatment, effect on crop; c: corn
Method in brief: as §2

barnyard grass [6] = test: Test Example 3: weedkilling efficacy through soil treatment; F: barnyard grass
Method in brief: as §3

rapeseed [7] = test: Test Example 4: foliar treatment, effect on crop; g: rapeseed
Method: (§5) Testing of Weedkilling Efficacy by Foliar Treatment
(§6) Sterilized diluvial soil was introduced into 21 cm long, 13 cm wide, 7 cm deep plastic boxes, and seeds of crabgrass, green foxtail, barnyard grass, wild oat, black-grass, Italian ryegrass, common wind-grass, Indian mallow, redroot pigweed, fig-leafed goosefoot, chickweed, catchweed, birds-eye speedwell, corn, soybean, rice, wheat, beet and rapeseed were each spot-sown, and covered with about 1.5 cm of soil, then the plants were grown in a greenhouse at 25 to 30° C.
(§7) After they had grown for 14 days, emulsions of compounds of the present invention prepared according to compounding example 2 were diluted with water to give the specified dosages, and applied uniformly onto the stem and leaf parts with a small sprayer. 3 weeks after the pesticide treatment the effect on each type of plant was investigated on the basis of the assessment criteria of test example 1.
(§8) A: barnyard grass, B: bulrush, C: oval-leafed pondweed, D: crabgrass, E: green foxtail, F: barnyard grass, G: wild oat, H: black-grass, I: Italian ryegrass, J: common wind-grass, K: Indian mallow, L: redroot pigweed, M: fig-leafed goosefoot, N: chickweed, O: catchweed, p: birds-eye speedwell, a: transplanted rice, b: directly sown rice, c: corn, d: soybean, e: wheat, f: beet, g: rapeseed
(§9) Further, pesticide dosage (g/ha) indicates the concentration regulated such that treatment was with only the stated number of grams (g), when calculated per hectare (ha).

fig-leafed goosefoot [8] = test: Test Example 4: weedkilling efficacy by foliar treatment; M: fig-leafed goosefoot
Method in brief: as §2

wheat [9] = test: Test Example 4: foliar treatment, effect on crop; e: wheat
Method in brief: as §2

green foxtail [10] = test: Test Example 3: weedkilling efficacy through soil treatment; E: green foxtail
Method in brief: as §3

Indian mallow [11] = test: Test Example 3: weedkilling efficacy through soil treatment; K: Indian mallow
Method in brief: as §3

rapeseed [12] = test: Test Example 3: soil treatment, effect on crop; g: rapeseed
Method in brief: as §3

Italian ryegrass [13] = test: Test Example 3: weedkilling efficacy through soil treatment; I: Italian ryegrass
Method in brief: as §3

black-grass [14] = test: Test Example 4: weedkilling efficacy by foliar treatment; H: black-grass
Method in brief: as §2

Indian mallow [15] = test: Test Example 4: weedkilling efficacy by foliar treatment; K: Indian mallow
Method in brief: as §2

common wind-grass [16] = test: Test Example 4: weedkilling efficacy by foliar treatment; J: common wind-grass
Method: as §5, §6, §7, §8, §9

soybean [17] = test: Test Example 3: soil treatment, effect on crop; d: soybean
Method in brief: as §3

bulrush [18] = test: Test Example 1: weedkilling efficacy, preemergent weed treatment in the submerged state; B: bulrush
Method in brief: as §1

wild oat [19] = test: Test Example 4: weedkilling efficacy by foliar treatment; G: wild oat
Method in brief: as §2

soybean [20] = test: Test Example 4: foliar treatment, effect on crop; d: soybean
Method in brief: as §2

barnyard grass [21] = test: Test Example 2: weedkilling efficacy, growth period weed treatment in the submerged state; A: barnyard grass
Method in brief: as §4

corn [22] = test: Test Example 3: soil treatment, effect on crop; c: corn
Method in brief: as §3

green foxtail [23] = test: Test Example 4: weedkilling efficacy by foliar treatment; E: green foxtail
Method in brief: as §2

barnyard grass [24] = test: Test Example 4: weedkilling efficacy by foliar treatment; F: barnyard grass
Method: as §5, §6, §7, §8, §9

beet [25] = test: Test Example 3: soil treatment, effect on crop; f: beet
Method in brief: as §3

redroot pigweed [26] = test: Test Example 3: weedkilling efficacy through soil treatment; L: redroot pigweed
Method in brief: as §3

black-grass [27] = test: Test Example 3: weedkilling efficacy through soil treatment; H: black-grass
Method in brief: as §3

crabgrass [28] = test: Test Example 4: weedkilling efficacy by foliar treatment; D: crabgrass
Method in brief: as §2

wheat [29] = test: Test Example 3: soil treatment, effect on crop; e: wheat
Method in brief: as §3

wild oat [30] = test: Test Example 3: weedkilling efficacy through soil treatment; G: wild oat
Method in brief: as §3

chickweed [31] = test: Test Example 3: weedkilling efficacy through soil treatment; N: chickweed
Method in brief: as §3

oval-leafed pondweed [32] = test: Test Example 1: weedkilling efficacy, preemergent weed treatment in the submerged state; C: oval-leafed pondweed
Method in brief: as §1

redroot pigweed [33] = test: Test Example 4: weedkilling efficacy by foliar treatment; L: redroot pigweed
Method in brief: as §2

fig-leafed goosefoot [34] = test: Test Example 3: weedkilling efficacy through soil treatment; M: fig-leafed goosefoot
Method in brief: as §3

oval-leafed pondweed [35] = test: Test Example 2: weedkilling efficacy, growth period weed treatment in the submerged state; C: oval-leafed pondweed
Method in brief: as §4

catchweed = test: Test Example 4: weedkilling efficacy by foliar treatment; O: catchweed
Method in brief: as §2

crabgrass [36] = test: Test Example 3: weedkilling efficacy through soil treatment; D: crabgrass
Method in brief: as §3

barnyard grass [37] = test: Test Example 1: weedkilling efficacy, preemergent weed treatment in the submerged state; A: barnyard grass
Method in brief: as §1

Italian ryegrass [38] = test: Test Example 4: weedkilling efficacy by foliar treatment; I: Italian ryegrass
Method in brief: as §2

birds-eye speedwell = test: Test Example 3: weedkilling efficacy through soil treatment; p: birds-eye speedwell
Method in brief: as §3

common wind-grass [39] = test: Test Example 3: weedkilling efficacy through soil treatment; J: common wind-grass
Method in brief: as §3

directly sown rice [40] = test: Test Example 4: foliar treatment, effect on crop; b: directly sown rice
Method in brief: as §2

`CC1=C(c2cccnc2F)C(=O)N(C(C)(C)C(=O)Nc2cc(C)cc(Cl)n2)CO1` [B-2-15] was tested, and the “a (transplanted rice) effect on crop grade” value (transplanted rice) was 3 (weed kill ratio 40% or more, less than 70%), the “N (chickweed) weedkilling efficacy grade” value (chickweed [1]) was 4 (weed kill ratio 70% or more, less than 90%) and the “b (directly sown rice) effect on crop grade” value (directly sown rice [2]) was 5 (weed kill ratio 90% or more, (practically complete withering)). For the same molecule, the “f (beet) effect on crop grade” value (beet [3]) was 3 (weed kill ratio 40% or more, less than 70%), the “B (bulrush) weedkilling efficacy grade” value (bulrush [4]) was 5 (weed kill ratio 90% or more, (practically complete withering)) and the “c (corn) effect on crop grade” value (corn [5]) was 4 (weed kill ratio 70% or more, less than 90%). The “F (barnyard grass) weedkilling efficacy grade” value (barnyard grass [6]) was 5 (weed kill ratio 90% or more, (practically complete withering)), the “g (rapeseed) effect on crop grade” value (rapeseed [7]) was 4 (weed kill ratio 70% or more, less than 90%) and the “M (fig-leafed goosefoot) weedkilling efficacy grade” value (fig-leafed goosefoot [8]) was 4 (weed kill ratio 70% or more, less than 90%). For the same molecule, the “e (wheat) effect on crop grade” value (wheat [9]) was 2 (weed kill ratio 20% or more, less than 40%), the “E (green foxtail) weedkilling efficacy grade” value (green foxtail [10]) was 5 (weed kill ratio 90% or more, (practically complete withering)) and the “K (Indian mallow) weedkilling efficacy grade” value (Indian mallow [11]) was 0 (weed kill ratio 5% or less (practically no effect)). For the same molecule, the “g (rapeseed) effect on crop grade” value (rapeseed [12]) was 2 (weed kill ratio 20% or more, less than 40%), the “I (Italian ryegrass) weedkilling efficacy grade” value (Italian ryegrass [13]) was 5 (weed kill ratio 90% or more, (practically complete withering)) and the “H (black-grass) weedkilling efficacy grade” value (black-grass [14]) was 4 (weed kill ratio 70% or more, less than 90%). For the same molecule, the “K (Indian mallow) weedkilling efficacy grade” value (Indian mallow [15]) was 1 (weed kill ratio 5% or more, less than 20%), the “J (common wind-grass) weedkilling efficacy grade” value (common wind-grass [16]) was 5 (weed kill ratio 90% or more, (practically complete withering)) and the “d (soybean) effect on crop grade” value (soybean [17]) was 0 (weed kill ratio 5% or less (practically no effect)). For the same molecule, the “B (bulrush) weedkilling efficacy grade” value (bulrush [18]) was 5 (weed kill ratio 90% or more, (practically complete withering)), the “G (wild oat) weedkilling efficacy grade” value (wild oat [19]) was 3 (weed kill ratio 40% or more, less than 70%) and the “d (soybean) effect on crop grade” value (soybean [20]) was 1 (weed kill ratio 5% or more, less than 20%). For the same molecule, the “A (barnyard grass) weedkilling efficacy grade” value (barnyard grass [21]) was 4 (weed kill ratio 70% or more, less than 90%), the “c (corn) effect on crop grade” value (corn [22]) was 0 (weed kill ratio 5% or less (practically no effect)) and the “E (green foxtail) weedkilling efficacy grade” value (green foxtail [23]) was 5 (weed kill ratio 90% or more, (practically complete withering)). The “F (barnyard grass) weedkilling efficacy grade” value (barnyard grass [24]) was 4 (weed kill ratio 70% or more, less than 90%), the “f (beet) effect on crop grade” value (beet [25]) was 2 (weed kill ratio 20% or more, less than 40%) and the “L (redroot pigweed) weedkilling efficacy grade” value (redroot pigweed [26]) was 0 (weed kill ratio 5% or less (practically no effect)). The “H (black-grass) weedkilling efficacy grade” value (black-grass [27]) was 5 (weed kill ratio 90% or more, (practically complete withering)), the “D (crabgrass) weedkilling efficacy grade” value (crabgrass [28]) was 4 (weed kill ratio 70% or more, less than 90%) and the “e (wheat) effect on crop grade” value (wheat [29]) was 0 (weed kill ratio 5% or less (practically no effect)). The “G (wild oat) weedkilling efficacy grade” value (wild oat [30]) was 3 (weed kill ratio 40% or more, less than 70%), the “N (chickweed) weedkilling efficacy grade” value (chickweed [31]) was 2 (weed kill ratio 20% or more, less than 40%) and the “C (oval-leafed pondweed) weedkilling efficacy grade” value (oval-leafed pondweed [32]) was 5 (weed kill ratio 90% or more, (practically complete withering)). The “L (redroot pigweed) weedkilling efficacy grade” value (redroot pigweed [33]) was 2 (weed kill ratio 20% or more, less than 40%), the “M (fig-leafed goosefoot) weedkilling efficacy grade” value (fig-leafed goosefoot [34]) was 3 (weed kill ratio 40% or more, less than 70%) and the “C (oval-leafed pondweed) weedkilling efficacy grade” value (oval-leafed pondweed [35]) was 5 (weed kill ratio 90% or more, (practically complete withering)). The “O (catchweed) weedkilling efficacy grade” value (catchweed) was 3 (weed kill ratio 40% or more, less than 70%), the “D (crabgrass) weedkilling efficacy grade” value (crabgrass [36]) was 5 (weed kill ratio 90% or more, (practically complete withering)) and the “A (barnyard grass) weedkilling efficacy grade” value (barnyard grass [37]) was 5 (weed kill ratio 90% or more, (practically complete withering)). The “I (Italian ryegrass) weedkilling efficacy grade” value (Italian ryegrass [38]) was 5 (weed kill ratio 90% or more, (practically complete withering)), the “P (birds-eye speedwell) weedkilling efficacy grade” value (birds-eye speedwell) was 4 (weed kill ratio 70% or more, less than 90%) and the “J (common wind-grass) weedkilling efficacy grade” value (common wind-grass [39]) was 5 (weed kill ratio 90% or more, (practically complete withering)). The “b (directly sown rice) effect on crop grade” value (directly sown rice [40]) was 5 (weed kill ratio 90% or more, (practically complete withering)).
